Measured values as given in patent US8710233B2 (Gruenenthal GmbH, priority 2005, dated 2014).
Where two headings read alike, the source gives them in different places.

Assays:
Type in all cases: cell-based
[1] = target: T1, vanilloid receptor (VR1) (Homo sapiens, UniProt Q8NER1); experiment: FLIPR Ca2+ influx assay on CHO K1 cells transfected with the VR1 gene (pharmacological method II); conditions: table 4; capsaicin; read-out: Ki (human) Cap.
T1 construct: expressed in transfected cells; host or cells: CHO K1 cells (ECACC), stably transfected

[2] = target: VR1/TRPV1 receptor (Homo sapiens, UniProt Q8NER1); experiment: IC50 (human) after pH stimulus; conditions: for IC50: table 4; for inhibition at 1 µM: ne = no effect
[3] = target: T2, vanilloid receptor 1 (VR1/TRPV1) of the rat species (Rattus norvegicus, UniProt O35433); experiment: FLIPR Ca2+ influx assay on rat dorsal root ganglia cells (pharmacological method I); conditions: table 4, capsaicin
T2 construct: The spinal column is removed from decapitated rats; from tissue; host or cells: primary cells dissociated from rat dorsal root ganglia
Method in brief: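 Primary rat dorsal root ganglion cells loaded with 2 μM Fluo-4, Ca2+ influx read on FLIPR as peak fluorescence. Triplicates, at least 3 independent experiments.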

[4] = read-out: inhibition in percent, IC50 (human) after pH stimulus

VR1/TRPV1 receptor, sequence (Q8NER1 whole entry): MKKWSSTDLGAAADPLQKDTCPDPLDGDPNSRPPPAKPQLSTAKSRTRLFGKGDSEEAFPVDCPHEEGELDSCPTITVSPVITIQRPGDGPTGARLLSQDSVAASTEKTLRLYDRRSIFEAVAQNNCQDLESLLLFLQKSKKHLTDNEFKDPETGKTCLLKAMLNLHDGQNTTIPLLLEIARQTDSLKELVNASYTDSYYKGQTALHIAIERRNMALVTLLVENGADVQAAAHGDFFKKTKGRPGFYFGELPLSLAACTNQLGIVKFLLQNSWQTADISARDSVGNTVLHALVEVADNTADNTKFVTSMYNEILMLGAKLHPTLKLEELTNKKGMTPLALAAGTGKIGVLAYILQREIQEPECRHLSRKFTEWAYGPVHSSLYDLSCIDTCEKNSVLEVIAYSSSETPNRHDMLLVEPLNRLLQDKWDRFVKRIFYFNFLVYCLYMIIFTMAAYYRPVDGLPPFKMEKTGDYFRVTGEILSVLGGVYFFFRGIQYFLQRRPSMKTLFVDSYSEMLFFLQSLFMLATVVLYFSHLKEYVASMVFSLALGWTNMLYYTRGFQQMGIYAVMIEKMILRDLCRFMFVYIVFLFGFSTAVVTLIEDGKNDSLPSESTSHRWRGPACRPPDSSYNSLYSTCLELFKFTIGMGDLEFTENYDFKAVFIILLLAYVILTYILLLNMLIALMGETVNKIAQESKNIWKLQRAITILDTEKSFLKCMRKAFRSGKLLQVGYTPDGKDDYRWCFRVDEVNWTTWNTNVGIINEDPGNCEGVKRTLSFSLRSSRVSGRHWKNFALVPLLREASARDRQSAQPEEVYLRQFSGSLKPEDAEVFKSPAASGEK
T1 sequence (Q8NER1 whole entry): as above
T2 sequence (O35433 whole entry): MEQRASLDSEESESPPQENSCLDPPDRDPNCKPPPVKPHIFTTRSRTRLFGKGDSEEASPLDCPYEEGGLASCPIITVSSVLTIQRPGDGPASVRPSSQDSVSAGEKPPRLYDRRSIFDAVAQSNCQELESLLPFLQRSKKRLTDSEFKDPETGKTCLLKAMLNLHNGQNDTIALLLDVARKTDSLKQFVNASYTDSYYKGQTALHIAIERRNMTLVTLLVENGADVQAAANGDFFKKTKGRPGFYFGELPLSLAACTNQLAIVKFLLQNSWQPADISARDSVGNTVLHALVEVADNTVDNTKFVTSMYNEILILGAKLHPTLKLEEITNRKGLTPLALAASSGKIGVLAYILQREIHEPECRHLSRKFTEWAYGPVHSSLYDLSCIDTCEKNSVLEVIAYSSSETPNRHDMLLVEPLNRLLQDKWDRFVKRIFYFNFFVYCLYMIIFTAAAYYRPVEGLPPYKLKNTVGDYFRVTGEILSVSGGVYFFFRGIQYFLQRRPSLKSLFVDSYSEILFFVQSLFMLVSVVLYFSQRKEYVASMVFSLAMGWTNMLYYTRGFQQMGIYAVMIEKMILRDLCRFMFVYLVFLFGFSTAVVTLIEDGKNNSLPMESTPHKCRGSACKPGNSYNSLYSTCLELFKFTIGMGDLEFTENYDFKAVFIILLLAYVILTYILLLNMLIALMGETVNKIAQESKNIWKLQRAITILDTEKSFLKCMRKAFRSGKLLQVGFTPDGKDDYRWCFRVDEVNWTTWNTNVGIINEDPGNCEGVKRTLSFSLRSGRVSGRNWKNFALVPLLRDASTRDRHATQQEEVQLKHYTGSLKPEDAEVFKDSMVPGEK

| Compound | Ki [1] [nM] | IC50 [2] [nM] | Ki ([3]; read-out: Ki (rat) Cap.) [nM] | inhibition at 1 µM [2, 4] [%] | inhibition at 10 µM [2, 4] [%] | inhibition at 0.1 µM [2, 4] [%] | Ki ([3]; Ki (rat) Cap.) [nM] | inhibition at 25 µM ([2]; @ 25 μM, read-out: inhibition in percent, IC50 (human) after pH stimulus) [%] |
| --- | --- | --- | --- | --- | --- | --- | --- | --- |
| CCCCOc1nc(C(C)(C)C)ccc1CNC(=O)C(C)c1ccc(NS(C)(=O)=O)c(F)c1 (centres unmarked) [Example 235, N-(2-butoxy-6-tert-butyl-pyridin-3-ylmethyl)-2-(3-fluoro-4-methylsulfonamido-phenyl)-propionamide] | 0.9 | 55 | 0.6 | – | – | – | – | – |
| CC(C(=O)NCc1ccc(C(C)(C)C)nc1N1CCCC1)c1ccc(NS(C)(=O)=O)c(F)c1 (centres unmarked) [Example 240, N-(6-tert-butyl-2-pyrrolidin-1-yl-pyridin-3-ylmethyl)-2-(3-fluoro-4-methansulfonylamino-phenyl)-propionamide] | 1.2 | – | 5.3 | 43 | – | 12 | – | – |
| CCc1ccc(COc2nc(C(F)(F)F)ccc2CNC(=O)C(C)c2ccc(NS(C)(=O)=O)c(F)c2)cc1 (centres unmarked) [Example 242, N-[2-(4-ethyl-benzyloxy)-6-trifluoromethyl-pyridin-3-ylmethyl]-2-(3-fluoro-4-methylsulfonamido-phenyl)-propionamide] | 3.7 | 165 | – | – | – | – | 1.2 | – |
| CC(C(=O)NCc1ccc(C(F)(F)F)nc1OC1Cc2ccccc2C1)c1ccc(NS(C)(=O)=O)c(F)c1 (centres unmarked) [Example 245, 2-(3-fluoro-4-methylsulfonamido-phenyl)-N-[2-(indan-2-yloxy)-6-trifluoromethyl-pyridin-3-ylmethyl]-propionamide] | 2.7 | – | – | 74 | – | 21 | 1.7 | – |
| Cc1ccc(N2CCN(c3cc(C(F)(F)F)ccc3CNC(=O)C(C)c3ccc(NS(C)(=O)=O)c(F)c3)CC2)cc1 (centres unmarked) [Example 246, 2-(3-fluoro-4-methylsulfonamido-phenyl)-N-[2-(4-p-tolyl-piperazin-1-yl)-4-trifluoromethyl-benzyl]-propionamide] | 0.7 | 87 | 0.5 | – | – | – | – | – |
| CC(C(=O)NCc1ccc(C(F)(F)F)cc1N1CCN(c2ccc(C(F)(F)F)cc2)CC1)c1ccc(NS(C)(=O)=O)c(F)c1 (centres unmarked) [Example 248, 2-(3-fluoro-4-methylsulfonamido-phenyl)-N-{4-trifluoromethyl-2-[4-(4-trifluoromethyl-phenyl)-piperazin-1-yl]-benzyl}-propionamide] | 3.9 | – | 0.9 | – | 66 | – | – | 74 |
| COc1ccc(N2CCN(c3cc(C(F)(F)F)ccc3CNC(=O)C(C)c3ccc(NS(C)(=O)=O)c(F)c3)CC2)cc1 (centres unmarked) [Example 249, 2-(3-fluoro-4-methylsulfonamido-phenyl)-N-{2-[4-(4-methoxy-phenyl)-piperazin-1-yl]-4-trifluoromethyl-benzyl}-propionamide] | 1.6 | – | 0.2 | 70 | – | 31 | – | – |
| CC(C(=O)NCc1ccc(C(F)(F)F)nc1-c1ccc(Cl)c(Cl)c1)c1ccc(NS(C)(=O)=O)c(F)c1 (centres unmarked) [Example 250, N-[2-(3,4-dichloro-phenyl)-6-trifluoromethyl-pyridin-3-ylmethyl]-2-(3-fluoro-4-methylsulfonamido-phenyl)-propionamide] | 0.9 | – | 0.9 | 51 | 68 | – | – | – |
| CC(C(=O)NCc1ccc(C(F)(F)F)cc1N1CCC(c2ccc(F)cc2)CC1)c1ccc(NS(C)(=O)=O)c(F)c1 (centres unmarked) [Example 255, 2-(3-fluoro-4-methylsulfonamido-phenyl)-N-{2-[4-(4-fluoro-phenyl)-piperidin-1-yl]-4-trifluoromethyl-benzyl}-propionamide] | 0.9 | 101 | 1.3 | – | – | – | – | – |
| CCCCOc1nc(C(F)(F)F)ccc1CNC(=O)C(C)c1ccc(NS(C)(=O)=O)c(C)c1 (centres unmarked) [Example 256, N-(2-butoxy-6-trifluoromethyl-pyridin-3-ylmethyl)-2-(4-methylsulfonamido-3-methyl-phenyl)-propionamide] | 0.6 | – | 0.3 | 59 | – | – | – | – |

More lines, in order of falling Ki [1], values ahead:

| Ki [1] [nM] | IC50 [2] [nM] | Ki ([3]; read-out: Ki (rat) Cap.) [nM] | inhibition at 1 µM [2, 4] [%] | inhibition at 10 µM [2, 4] [%] | inhibition at 0.1 µM [2, 4] [%] | Ki ([3]; Ki (rat) Cap.) [nM] | inhibition at 25 µM ([2]; @ 25 μM, read-out: inhibition in percent, IC50 (human) after pH stimulus) [%] | Compound |
| --- | --- | --- | --- | --- | --- | --- | --- | --- |
| 16 | 337 | 5.1 | – | – | – | – | – | CCCCc1ccc(COc2nc(C(F)(F)F)ccc2CNC(=O)C(C)c2ccc(NS(C)(=O)=O)c(F)c2)cc1 (centres unmarked) [Example 243, N-[2-(4-butyl-benzyloxy)-6-trifluoromethyl-pyridin-3-ylmethyl]-2-(3-fluoro-4-methylsulfonamido-phenyl)-propionamide] |
| 6.1 | 289 | 17.9 | – | – | – | – | – | CC(C(=O)NCc1ccc(C(F)(F)F)nc1N1CCC2(CC1)CC(c1ccccc1)=NO2)c1ccc(NS(C)(=O)=O)c(F)c1 (centres unmarked) [Example 252, 2-(3-fluoro-4-methylsulfonamido-phenyl)-N-[2-(3-phenyl-1-oxa-2,8-diaza-spiro[4.5]dec-2-en-8-yl)-6-trifluoromethyl-pyridin-3-ylmethyl]-propionamide] |
| 4.4 | – | 2 | 70 | – | – | – | – | CC(C(=O)NCc1ccc(C(C)(C)C)nc1OCc1ccccc1)c1ccc(NS(C)(=O)=O)c(F)c1 (centres unmarked) [Example 237, N-(2-benzyloxy-6-tert-butyl-pyridin-3-ylmethyl)-2-(3-fluoro-4-methylsulfonamido-phenyl)-propionamide] |
| 4.2 | – | 1.3 | 63 | – | 19 | – | – | COc1ccc(-c2nc(C(F)(F)F)ccc2CNC(=O)C(C)c2ccc(NS(C)(=O)=O)c(F)c2)cc1F (centres unmarked) [Example 254, 2-(3-fluoro-4-methylsulfonamido-phenyl)-N-[2-(3-fluoro-4-methoxy-phenyl)-6-trifluoromethyl-pyridin-3-ylmethyl]-propionamide] |
| 3.8 | 281 | 8.7 | – | – | – | – | – | CC(C(=O)NCc1ccc(C(F)(F)F)nc1N1CCC2(CC1)CC(C(C)(C)C)=NO2)c1ccc(NS(C)(=O)=O)c(F)c1 (centres unmarked) [Example 251, N-[2-(3-tert-butyl-1-oxa-2,8-diaza-spiro[4.5]dec-2-en-8-yl)-6-trifluoromethyl-pyridin-3-ylmethyl]-2-(3-fluoro-4-methylsulfonamido-phenyl)-propionamide] |
| 2.7 | – | 1.4 | 76 | 69 | – | – | – | CCCCCCOc1nc(C(C)(C)C)ccc1CNC(=O)C(C)c1ccc(NS(C)(=O)=O)c(F)c1 (centres unmarked) [Example 236, N-(6-tert-butyl-2-hexyloxy-pyridin-3-ylmethyl)-2-(3-fluoro-4-methylsulfonamido-phenyl)-propionamide] |
| 2.5 | – | 1.4 | 50 | 63 | – | – | – | CC(C(=O)NCc1ccc(C(C)(C)C)nc1OC1CCCCC1)c1ccc(NS(C)(=O)=O)c(F)c1 (centres unmarked) [Example 233, N-(6-tert-butyl-2-cyclohexyloxy-pyridin-3-ylmethyl)-2-(3-fluoro-4-methylsulfonamido-phenyl)-propionamide] |
| 2.1 | 182 | – | – | – | – | 1.1 | – | CC(C(=O)NCc1ccc(C(F)(F)F)nc1OCc1ccc(C(C)(C)C)cc1)c1ccc(NS(C)(=O)=O)c(F)c1 (centres unmarked) [Example 244, N-[2-(4-tert-butyl-benzyloxy)-6-trifluoromethyl-pyridin-3-ylmethyl]-2-(3-fluoro-4-methylsulfonamido-phenyl)-propionamide] |
| 1.9 | – | 0.5 | 79 | – | 34 | – | – | CC1CCN(c2nc(C(C)(C)C)ccc2CNC(=O)C(C)c2ccc(NS(C)(=O)=O)c(F)c2)CC1 (centres unmarked) [Example 241, N-(6′-tert-butyl-4-methyl-3,4,5,6-tetrahydro-2H-[1,2′]bipyridinyl-3′-ylmethyl)-2-(3-fluoro-4-methylsulfonamido-phenyl)-propionamide] |
| 1.8 | – | 0.5 | 69 | – | 36 | – | – | Cc1cccc(N2CCN(c3cc(C(F)(F)F)ccc3CNC(=O)C(C)c3ccc(NS(C)(=O)=O)c(F)c3)CC2)c1 (centres unmarked) [Example 247, 2-(3-fluoro-4-methylsulfonamido-phenyl)-N-[2-(4-m-tolyl-piperazin-1-yl)-4-trifluoromethyl-benzyl]-propionamide] |
| 1.4 | 37.6 | 0.8 | – | – | – | – | – | CC(C(=O)NCc1ccc(C(F)(F)F)cc1N1CCC(Cc2ccccc2)CC1)c1ccc(NS(C)(=O)=O)c(F)c1 (centres unmarked) [Example 231, N-[2-(4-benzyl-piperidin-1-yl)-4-trifluoromethyl-benzyl]-2-(3-fluoro-4-methylsulfonamido-phenyl)-propionamide] |
| 0.7 | 17.7 | 0.7 | – | – | – | – | – | CCC1CCN(c2cc(C(F)(F)F)ccc2CNC(=O)C(C)c2ccc(NS(C)(=O)=O)c(F)c2)CC1 (centres unmarked) [Example 229, N-[2-(4-ethyl-piperidin-1-yl)-4-trifluoromethyl-benzyl]-2-(3-fluoro-4-methylsulfonamido-phenyl)-propionamide] |
| 0.7 | – | 0.6 | 55 | – | 39 | – | – | CC(C(=O)NCc1ccc(C(F)(F)F)cc1OC1CCCCC1)c1ccc(NS(C)(=O)=O)c(F)c1 (centres unmarked) [Example 238, N-(2-cyclohexyloxy-4-trifluoromethyl-benzyl)-2-(3-fluoro-4-methylsulfonamido-phenyl)-propionamide] |
| 0.4 | 20.1 | 0.6 | – | – | – | – | – | CC(C(=O)NCc1ccc(C(F)(F)F)cc1N1CCC(C(F)(F)F)CC1)c1ccc(NS(C)(=O)=O)c(F)c1 (centres unmarked) [Example 230, 2-(3-fluoro-4-methylsulfonamido-phenyl)-N-[4-trifluoromethyl-2-(4-trifluoromethyl-piperidin-1-yl)-benzyl]-propionamide] |
